The term AUC denotes the area under the concentration-time curve, a measure of exposure.

The structures appear in SMILES notation.

Series [1] in a line: Dissolution of Efavirenz spray dried dispersions in FaSSIF media (Pion μDiss Profiler). The series is classed as physicochemical. On the procedure:
(§1) The active pharmaceutical ingredient (API) and polymer were mixed in a 30:70 ratio and spray-dried into a spray dried dispersion (SDD). The following are the solution preparation and spray drying process information. Solution preparation: Efavirenz and polymers were dissolved in a 2:1 (w/w) mixture of acetone:methanol solution at a total 3% solid loading. Dissolution of all components was visually confirmed before spray drying. Spray drying: Spray drying was performed on a GEA-Niro SD Micro spray dryer. All dispersions were spray dried targeting an inlet gas temperature of 85° C., 25 kg/hour process gas flow, 0.5 barr atomization gas pressure, 1.5 kg/hour atomizing gas flow, and an adjustable liquid feed rate targeting an outlet gas temperature of 55° C. The feed solution was held at ambient conditions. Dissolution: The dissolution tests were conducted using Pion μDiss Profiler with in situ Fiber Optic UV-Vis Monitoring. 66.7 mg spray dried dispersion (SDD) was weighed and tested in the dissolution, with 30% drug loading level (20 mg API). The controlled reference used in dissolution testing is pure API Efavirenz (20 mg). The quantity of dissolution media is 20 mL. The API concentrations were monitored for 2 hours. For each sample, triplicate measurements were taken and the average results were reported. Fasted Simulated Intestine Fluid (FaSSIF), as well as pH 6.8 phosphate buffer, were used to perform the dissolution. FaSSIF is virtually the same as the small intestinal juices present when one hasn't eaten any food, and contain bile salts and phospholipids, physiologically relevant surfactants which are missing from typical dissolution media. The use of FaSSIF media can help to better correlate the in vitro dissolution property and the in vivo response (IVIVC), so as to further understand the API performance in actual human body. Meanwhile, pH 6.8 phosphate buffer medium was also used in the study, as it was more typically used in formulation development/screening process, pH 6.8 phosphate buffer medium is not as indicated as FaSSIF medium in terms of establishing the IVIVC. […]

The nature of series [2]: Dissolution of Efavirenz spray dried dispersions in pH 6.8 phosphate buffer media (Pion μDiss Profiler). It is filed as physicochemical. Here is the method:
as §1

Series [3] in a line: Glass transition temperature (Tg) by differential scanning calorimetry. It is filed as physicochemical. The following applies: regular DSC, heat-cool-heat, 10° C./minute, second heating cycle. Here is the method: Differential Scanning Calorimetry (DSC): Glass transition temperature Tg is an important indicator of API physical stability against crystallization through storage. The higher Tg, the better physical stability. Generally speaking, if the Tg is equal to or higher than storage temperature+50° C., then the product is expected to be very stable throughout the entire shelf life. If the Tg is between storage temperature and temperature+50° C., then some stability issue may occur.
The glass transition temperature (Tg) measurement were conducted using TA instrument, Q2000. For pure ingredients, regular DSC set up was used. A heat-cool-heat cycle with a heating rate of 10° C./minutes was implemented. The first heating cycle is used to standardize sample by erasing its thermal history, and the Tg from second heating cycle is reported. For SDD, modulated DSC set up was used. An average heating rate of 2° C./minute with modulation amplitude of 1° per 40 seconds was implemented.
The measurement results are summarized below in the Table. […] Stable SDDs are expected from this indicator.
(In general: Differential scanning calorimetry records heat flow against a reference as temperature is scanned.)

For series [4] the following is noted: description of the API; cited from earlier work.
For series [5] the following is noted: BCS-2 type drug; cited from earlier work.
The conditions of series [6]: cited from earlier work.
Setting [7] is: 20 mg API in 20 mL, 30% drug load SDD (API:polymer 30:70), 2 hours, mean of triplicate.
Where [8] appears, read: Efavirenz concentration at 120 min, SDD 30:70.

In the case of `O=C1Nc2ccc(Cl)cc2[C@@](C#CC2CC2)(C(F)(F)F)O1` [Efavirenz], the exposure (AUC) in series [1] (setting [7]) is 18702.91 µg·min/mL; in series [2] (setting [7]) it was 960.92 µg·min/mL. Moreover, the relAUC in series [1] (AUC of SDD vs AUC of neat API) and in series [2] (AUC of SDD vs AUC of neat API) was 1.0 in each case. In addition, the C120 in series [1] (setting [8]) worked out at 166.7892 µg/mL; in series [2] (setting [8]) it was 9.924 µg/mL. In series [3], the “Tg, Pure ingredient” value worked out at 34.9 °C. For the same compound, in series [4], the glass transition temperature result is “around 35 °C”. Further, in series [5], the aqueous solubility entry is given as “poor”. Moreover, the “partition coefficient in an octanol-water system (logP)” value in series [6] is on record as 4.7.

Source of the values: US11753484B2, “Cellulose ether-lactam hybrid polymers, compositions, and methods for preparing and using the hybrid polymers” (HERCULES LLC, priority 2017, dated 2023).
